{"source": "paper PMC7148434", "about": "“ACE-domain selectivity extends beyond direct interacting residues at the active site” (Biochemical Journal, 2020)", "origin": "cited, not measured here", "key": {"[1]": {"target": "cACE (Homo sapiens, UniProt P12821)", "sequence (P12821 643-1222 limits assumed)": "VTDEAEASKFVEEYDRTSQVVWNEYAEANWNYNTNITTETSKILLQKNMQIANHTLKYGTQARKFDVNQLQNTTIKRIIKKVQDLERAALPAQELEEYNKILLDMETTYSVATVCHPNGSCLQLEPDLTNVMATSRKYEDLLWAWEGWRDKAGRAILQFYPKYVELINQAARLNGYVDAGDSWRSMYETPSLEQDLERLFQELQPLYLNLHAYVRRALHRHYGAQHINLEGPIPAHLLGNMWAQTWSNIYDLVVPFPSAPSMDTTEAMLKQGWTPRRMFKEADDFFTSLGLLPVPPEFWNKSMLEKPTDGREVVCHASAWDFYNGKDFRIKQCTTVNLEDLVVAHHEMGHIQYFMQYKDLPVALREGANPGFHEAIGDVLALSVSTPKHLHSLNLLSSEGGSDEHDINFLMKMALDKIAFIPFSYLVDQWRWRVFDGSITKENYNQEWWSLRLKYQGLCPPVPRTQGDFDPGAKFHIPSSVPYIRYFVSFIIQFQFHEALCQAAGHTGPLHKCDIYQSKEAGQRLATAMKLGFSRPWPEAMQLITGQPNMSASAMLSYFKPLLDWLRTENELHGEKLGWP", "design": "The truncated (single domain) wild-type N-domain (nACE), wild-type C-domain (cACE) and N-domain mutant constructs; made in house; host or cells: CHO-K1; method as in Lubbe et al. [23]", "conditions": "ref Lubbe et al. [23]; cited from earlier work"}, "[2]": {"target": "nACE (Homo sapiens, UniProt P12821)", "sequence (P12821 40-624 limits assumed)": "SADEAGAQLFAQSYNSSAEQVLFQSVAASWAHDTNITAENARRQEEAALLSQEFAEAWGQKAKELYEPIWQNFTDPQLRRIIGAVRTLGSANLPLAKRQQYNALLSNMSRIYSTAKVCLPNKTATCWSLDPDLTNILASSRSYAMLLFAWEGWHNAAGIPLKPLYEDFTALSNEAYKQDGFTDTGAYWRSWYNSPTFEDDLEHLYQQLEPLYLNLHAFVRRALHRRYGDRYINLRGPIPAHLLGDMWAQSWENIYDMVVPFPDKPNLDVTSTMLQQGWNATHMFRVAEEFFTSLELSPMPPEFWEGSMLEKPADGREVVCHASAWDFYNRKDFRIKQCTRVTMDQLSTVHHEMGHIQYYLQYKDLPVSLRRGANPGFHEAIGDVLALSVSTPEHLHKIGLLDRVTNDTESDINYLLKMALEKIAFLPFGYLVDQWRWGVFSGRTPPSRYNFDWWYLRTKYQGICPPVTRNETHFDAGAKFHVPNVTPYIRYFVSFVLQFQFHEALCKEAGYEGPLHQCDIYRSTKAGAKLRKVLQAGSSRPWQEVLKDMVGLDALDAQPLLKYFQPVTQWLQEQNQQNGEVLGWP", "design": "The truncated (single domain) wild-type N-domain (nACE), wild-type C-domain (cACE) and N-domain mutant constructs; made in house; host or cells: CHO-K1", "conditions": "nACE; ref Lubbe et al. [23]; cited from earlier work"}, "[3]": {"target": "S′-nACE (S260T, E262S, D354E, S357V, T358V and E431D) (Homo sapiens, UniProt P12821, D383E/E291S/E460D/S289T/S386V/T387V)", "sequence (P12821 40-624 S289T/E291S/D383E/S386V/T387V/E460D)": "as the sequence (P12821 40-624 limits assumed) above, with S250T, E252S, D344E, S347V, T348V, E421D counted along it", "design": "The truncated (single domain) wild-type N-domain (nACE), wild-type C-domain (cACE) and N-domain mutant constructs; made in house; host or cells: CHO-K1", "conditions": "cited from earlier work"}, "[4]": {"target": "S2_S′-nACE (S260T, E262S, D354E, S357V, T358V, Y369F, R381E and E431D) (Homo sapiens, UniProt P12821, D383E/E291S/E460D/R410E/S289T/S386V/T387V/Y398F)", "sequence (P12821 40-624 S289T/E291S/D383E/S386V/T387V/Y398F/R410E/E460D)": "as the sequence (P12821 40-624 limits assumed) above, with S250T, E252S, D344E, S347V, T348V, Y359F, R371E, E421D counted along it", "design": "The truncated (single domain) wild-type N-domain (nACE), wild-type C-domain (cACE) and N-domain mutant constructs; made in house; host or cells: CHO-K1", "conditions": "cited from earlier work"}, "[5]": {"tested_on": "nACE", "conditions": "cited from earlier work"}, "[6]": {"target": "S2-nACE (Y369F and R381E) (Homo sapiens, UniProt P12821, R410E/Y398F)", "sequence (P12821 40-624 Y398F/R410E)": "as the sequence (P12821 40-624 limits assumed) above, with Y359F, R371E counted along it", "design": "The truncated (single domain) wild-type N-domain (nACE), wild-type C-domain (cACE) and N-domain mutant constructs; made in house; host or cells: CHO-K1", "conditions": "cited from earlier work"}}, "note": "“And” between values parts separate entries of the source, which are not always exact repeats. Equal values may be shown once."}
{"smiles": "C[C@H](CP(=O)(O)[C@H](Cc1ccccc1)NC(=O)C(N)Cc1nnn[nH]1)C(=O)N[C@@H](C)C(N)=O", "note": "(stereo partly drawn) [33RE]", "values": [{"measurement": "Selectivity (Ki cACE/Ki nACE or mutant)", "setting": "[1]", "result": 1}, {"measurement": "Ki", "setting": "[2]", "result": "11.2 ± 0.735", "unit": "nM"}, {"measurement": "Selectivity (Ki cACE/Ki nACE or mutant)", "setting": "[3]; Ki cACE / Ki S′-nACE, ref Lubbe et al. [23]", "result": 48}, {"measurement": "decrease in binding affinity compared with nACE", "setting": "[3]; S′-nACE relative to nACE", "result": 22, "unit": "fold"}, {"measurement": "Ki", "setting": "[3]; S′-nACE, ref Lubbe et al. [23]", "result": "237 ± 13.6", "unit": "nM"}, {"measurement": "Selectivity (Ki cACE/Ki nACE or mutant)", "setting": "[4]; Ki cACE / Ki S2_S′-nACE, ref Lubbe et al. [23]", "result": 1.1}, {"measurement": "decrease in binding affinity compared with nACE", "setting": "[4]; S2_S′-nACE relative to nACE", "result": 900, "unit": "fold"}, {"measurement": "Selectivity (Ki cACE/Ki nACE or mutant)", "setting": "[5]; Ki cACE / Ki nACE (N-selectivity), ref Lubbe et al. [23]", "result": "1000 and 1006"}, {"measurement": "selectivity over cACE", "setting": "[5]; nACE over cACE, previous kinetic studies", "result": "~1000", "unit": "fold"}, {"measurement": "Selectivity (Ki cACE/Ki nACE or mutant)", "setting": "[6]; Ki cACE / Ki S2-nACE, ref Lubbe et al. [23]", "result": 4}, {"measurement": "decrease in binding affinity compared with nACE", "setting": "[6]; S2-nACE relative to nACE", "result": 254, "unit": "fold"}, {"measurement": "Ki", "setting": "[6]; S2-nACE, ref Lubbe et al. [23]", "result": "2790 ± 156", "unit": "nM"}]}
